Data set [1] is described as follows: Corrosion wheel test, sweet-sour, all water system (3% NaCl brine, saturated CO2 + 100 ppm H2S), Table I. To be noted: 160° F., 24 hours, 3% NaCl brine only. The protocol:
(§1) Twelve quaternary ammonium salts according to the present invention, were tested under four standard sets of corrosion wheel test conditions. These include a sweet-sour test in an all water system under a range of concentrations from 4-256 ppm (TABLE I). Tests 2 and 3 were run under sweet (TABLE III), and sour conditions (TABLE II) at low (4 ppm) and high (256 ppm) concentrations only. A film persistency test (TABLE IV) was also run for completeness of the screening sequence; however, it was not expected that these water soluble compounds would perform well under these test conditions. Due to the low solubility of some C18 derivatives, 20% activity was adopted as a standard, with the C18 compounds being submitted at 10% activity and added at double concentration to the test fluids. […] Compounds are generally water and low brine soluble, hydrocarbon dispersible with some C18 derivatives being soluble in both fresh water and hydrocarbon.
Blank weight loss: 40 ± 0.9 mg
(§2) Fluids: 3% NaCl brine only
(§3) Saturated CO2 + 100 ppm H2 S
(§4) Duplicates w/ triplicate blanks

Data set [2] in a line: Corrosion wheel test, sour (3% NaCl brine, saturated N2 + 500 ppm H2S), Table II. The conditions noted are these: 160° F., 24 hours, 3% NaCl brine only. The method, then: as §1
Blank weight loss: 55.8 ± 1.0 mg
as §2
Saturated N2 + 500 ppm H2 S
Duplicates and triplicate blanks

Data set [3] is described as follows: Corrosion wheel test, sweet (50-50 3% NaCl brine - Mentor, saturated CO2 only), Tables III, VI, VII. The conditions noted are these: Table III, 160° F., 24 hours. The protocol: Twelve quaternary ammonium salts according to the present invention, were tested under four standard sets of corrosion wheel test conditions. These include a sweet-sour test in an all water system under a range of concentrations from 4-256 ppm (TABLE I). Tests 2 and 3 were run under sweet (TABLE III), and sour conditions (TABLE II) at low (4 ppm) and high (256 ppm) concentrations only.
(§5) Fluids: 50-50 3% NaCl brine - Mentor
as §4
Fluids: 50-50 - 3% NaCl brine - Mentor

A short description of data set [4]: Film persistent corrosion wheel test (50-50 3% NaCl brine - Mentor, saturated CO2 + 100 ppm H2S), Table IV. To be noted: 160° F., film 1 hr, rinse 1 hr, run 24 hrs, single data points. The method, then:
as §1
Blank weight loss: 58.3 ± 3.3 mg
Film 1 hr, Rinse 1 hr, Run 24 hrs.
as §5, §3
Single data points with triplicate blanks

Data set [5] can be described thus: Inhibitor solubility test, Table V. To be noted: 20% active inhibitor added at 0.5% by volume; observed initially and after 24 hours. Format: physicochemical.
The nature of data set [6]: Corrosion wheel test, sweet (50-50 3% NaCl brine - Mentor, saturated CO2 only), Tables III, VI, VII. To be noted: for % Protection @ 2 ppm / % Protection @ 4 ppm / % Protection @ 8 ppm / % Protection @ 32 ppm / % Protection @ 128 ppm: 160° F., 24 hours, saturated CO2 only; for corrosion protection / performance (in words): CO2 only corrosive environment.
The mark [7] stands for this setting: Table VII, thiol addition comparison.

Each structure is given as a SMILES string.

Regarding `CCCCCCCCCCCCSCC[N+](C)(C)C` [Compound 8], in data set [1], the “% Protection @ 4 ppm” value was found to be 7%, the “% Protection @ 8 ppm” value is reported as 13%, the “% Protection @ 16 ppm” value amounted to 23% and the “% Protection @ 256 ppm” value was found to be 81%. Also, in data set [2], the “% Protection @ 4 ppm” value was 3% and the “% Protection @ 256 ppm” value stood at 78%. In data set [3], the “% Protection @ 4 ppm” value is recorded as 14% and the “% Protection @ 256 ppm” value is 76%. Moreover, the “% Protection @ 10,000 ppm” value in data set [4] was found to be 19%. Also, in data set [5], the “Solubility in 5% NaCl brine” value is “sol”, the “Solubility in aromatic naphtha” value was “disp”, the “Solubility in distilled water” value is on record as “sol” and the Solubility in kerosene result was “disp”. Also, in data set [6] (Table VI confirmatory test), the “% Protection @ 2 ppm” value was 9%, the “% Protection @ 4 ppm” value was 19%, the “% Protection @ 8 ppm” value was found to be 18% and the “% Protection @ 32 ppm” value was found to be 62%. Further, the “% Protection @ 128 ppm” value in data set [6] (Table VI confirmatory test) is 82%.
For `CCCCCCCCCCCC[N+](C)(C)CCCS` [Compound 5], in data set [1], the “% Protection @ 4 ppm” value came out at 30%, the “% Protection @ 8 ppm” value is listed as 59%, the “% Protection @ 16 ppm” value came out at 67% and the “% Protection @ 256 ppm” value came out at 76%. In addition, in data set [2], the “% Protection @ 4 ppm” value came out at 17% and the “% Protection @ 256 ppm” value turned out to be 77%. For the same compound, in data set [3], the “% Protection @ 4 ppm” value is reported as 82% and the “% Protection @ 256 ppm” value is given as 85%. The “% Protection @ 10,000 ppm” value in data set [4] was determined as 25%. Moreover, in data set [5], the “Solubility in 5% NaCl brine” value is on record as “sol”, the “Solubility in aromatic naphtha” value is “disp”, the “Solubility in distilled water” value was “sol” and the Solubility in kerosene entry is given as “disp”. For the same compound, in data set [6] (Table VI confirmatory test), the “% Protection @ 2 ppm” value is recorded as 45%, the “% Protection @ 4 ppm” value was 63%, the “% Protection @ 8 ppm” value worked out at 79% and the “% Protection @ 32 ppm” value is on record as 80%. For the same compound, in data set [6] (Table VI confirmatory test), the “% Protection @ 128 ppm” value worked out at 78%.
As for `CCCCCCCCSCCC[N+](C)(C)C` [Compound 10], in data set [1], the “% Protection @ 4 ppm” value stood at 18%, the “% Protection @ 8 ppm” value was found to be 23%, the “% Protection @ 16 ppm” value is reported as 24% and the “% Protection @ 256 ppm” value worked out at 50%. Also, in data set [2], the “% Protection @ 4 ppm” value came out at 12% and the “% Protection @ 256 ppm” value was determined as 75%. Further, the “% Protection @ 4 ppm” value in data set [3] was 81%. Besides, the “% Protection @ 10,000 ppm” value in data set [4] is given as 8%. In data set [5], the “Solubility in 5% NaCl brine” value is “sol”, the “Solubility in aromatic naphtha” value was “disp”, the “Solubility in distilled water” value was “sol” and the Solubility in kerosene entry is reported as “disp”. Besides, in data set [6] (Table VI confirmatory test), the “% Protection @ 2 ppm” value was 10%, the “% Protection @ 4 ppm” value is on record as 12%, the “% Protection @ 8 ppm” value was 20% and the “% Protection @ 32 ppm” value was 25%. In addition, the “% Protection @ 128 ppm” value in data set [6] (Table VI confirmatory test) amounted to 51%.
For the compound `CCCCCCCCCCCCCCCCCC[N+](C)(C)CCS` [Compound 3], in data set [1], the “% Protection @ 4 ppm” value worked out at 31%, the “% Protection @ 8 ppm” value is 41%, the “% Protection @ 16 ppm” value is listed as 58% and the “% Protection @ 256 ppm” value amounted to 60%. In data set [2], the “% Protection @ 4 ppm” value is 11% and the “% Protection @ 256 ppm” value amounted to 83%. Besides, in data set [3], the “% Protection @ 4 ppm” value was 62% and the “% Protection @ 256 ppm” value is given as 92%. Also, the “% Protection @ 10,000 ppm” value in data set [4] is 53%. In data set [5], the “Solubility in 5% NaCl brine” value was “disp”, the “Solubility in aromatic naphtha” value is “sol”, the “Solubility in distilled water” value is reported as “sol” and the Solubility in kerosene result is “sol”. Further, in data set [6] (Table VI confirmatory test), the “% Protection @ 2 ppm” value worked out at 18%, the “% Protection @ 4 ppm” value was 18%, the “% Protection @ 8 ppm” value was determined as 76% and the “% Protection @ 32 ppm” value is given as 79%. Besides, the “% Protection @ 128 ppm” value in data set [6] (Table VI confirmatory test) is 81%.
As for `CCCCCCCCCCCCS` [C12 H25 SH, dodecane thiol, reference compound], in data set [6] (Table VII), the “corrosion protection / performance (in words)” value is “neither did dodecene thiol alone give any corrosion protection”. In data set [6] (setting [7]), the “% Protection @ 2 ppm” value was 4%, the “% Protection @ 8 ppm” value turned out to be 7% and the “% Protection @ 128 ppm” value was 0%.
Take `CCCCCCCCCCCCSCCC[N+](C)(C)C` [Compound 11]: in data set [1], the “% Protection @ 4 ppm” value turned out to be 21%, the “% Protection @ 8 ppm” value stood at 27%, the “% Protection @ 16 ppm” value was determined as 35% and the “% Protection @ 256 ppm” value was determined as 79%. Also, in data set [2], the “% Protection @ 4 ppm” value turned out to be 15% and the “% Protection @ 256 ppm” value came out at 80%. In data set [3], the “% Protection @ 4 ppm” value is recorded as 60% and the “% Protection @ 256 ppm” value worked out at 84%. For the same compound, the “% Protection @ 10,000 ppm” value in data set [4] came out at 20%. Besides, in data set [5], the “Solubility in 5% NaCl brine” value is recorded as “sol”, the “Solubility in aromatic naphtha” value is listed as “disp”, the “Solubility in distilled water” value was “sol” and the Solubility in kerosene entry was “disp”.
Take `CCCCCCCCCCCCCCCCCCSCC[N+](C)(C)C` [Compound 9]: in data set [1], the “% Protection @ 4 ppm” value is 26%, the “% Protection @ 8 ppm” value stood at 33%, the “% Protection @ 16 ppm” value turned out to be 52% and the “% Protection @ 256 ppm” value is 66%. In data set [2], the “% Protection @ 4 ppm” value was determined as 6% and the “% Protection @ 256 ppm” value is on record as 75%. Also, in data set [3], the “% Protection @ 4 ppm” value is 38% and the “% Protection @ 256 ppm” value amounted to 84%. The “% Protection @ 10,000 ppm” value in data set [4] is 17%. Also, in data set [5], the “Solubility in 5% NaCl brine” value was “insol”, the “Solubility in aromatic naphtha” value is on record as “disp”, the “Solubility in distilled water” value is reported as “disp” and the Solubility in kerosene result is reported as “disp”.
As for `CCCCCCCCSCC[N+](C)(C)C` [Compound 7], in data set [1], the “% Protection @ 4 ppm” value came out at 15%, the “% Protection @ 8 ppm” value worked out at 17%, the “% Protection @ 16 ppm” value is 11% and the “% Protection @ 256 ppm” value worked out at 31%. Further, in data set [2], the “% Protection @ 4 ppm” value turned out to be 7% and the “% Protection @ 256 ppm” value is given as 72%. Moreover, in data set [3], the “% Protection @ 4 ppm” value came to 29% and the “% Protection @ 256 ppm” value was found to be 65%. Moreover, in data set [4], the “% Protection @ 10,000 ppm” value came to 11%. Moreover, in data set [5], the “Solubility in 5% NaCl brine” value was “sol”, the “Solubility in aromatic naphtha” value is “disp”, the “Solubility in distilled water” value is on record as “sol” and the Solubility in kerosene entry is recorded as “disp”.
In the case of `CCCCCCCCCC[N+](C)(C)C` [C10 H21 NMe3 I, reference compound], in data set [6] (Table VII), the “corrosion protection / performance (in words)” value is “too short an alkyl chain length to function effectively as a corrosion inhibitor”. Also, in data set [6] (setting [7]), the “% Protection @ 2 ppm” value is 0%, the “% Protection @ 8 ppm” value was found to be 4% and the “% Protection @ 128 ppm” value is 3%.
Turning to `CCCCCCCCCCCCCCCCCCSCCC[N+](C)(C)C` [Compound 12], in data set [1], the “% Protection @ 4 ppm” value is 49%, the “% Protection @ 8 ppm” value was 56%, the “% Protection @ 16 ppm” value was determined as 57% and the “% Protection @ 256 ppm” value stood at 69%. For the same compound, in data set [2], the “% Protection @ 4 ppm” value was determined as 14% and the “% Protection @ 256 ppm” value is on record as 81%. Also, in data set [3], the “% Protection @ 4 ppm” value is reported as 50% and the “% Protection @ 256 ppm” value was found to be 83%. Besides, the “% Protection @ 10,000 ppm” value in data set [4] is recorded as 14%. Further, in data set [5], the “Solubility in 5% NaCl brine” value is listed as “insol”, the “Solubility in aromatic naphtha” value was “sol”, the “Solubility in distilled water” value was “sol” and the Solubility in kerosene result is on record as “disp”.

Values taken from US4673436A, “N, S containing corrosion inhibitors” (Exxon Chemical Patents Inc., priority 1986, dated 1987).
